Test results reported in US11530208B2, “Imidazo[4,5-C]pyridine derived SSAO inhibitors” (PROXIMAGEN, LLC, priority 2014, dated 2022).

Experiments:
[1] = target: human SSAO (Homo sapiens (Human), UniProt Q16853); assay: SSAO enzyme inhibition assay; type: biochemical; conditions: purified recombinantly expressed human SSAO, benzylamine substrate, RT
Protocol: All primary assays were performed at RT. with purified recombinantly expressed human SSAO. Enzyme was prepared essentially as described in Öhman et al. (Protein Expression and Purification 46 (2006) 321-331). In addition, secondary- and selectivity assays were performed using SSAO prepared from various tissues or purified rat recombinant SSAO. The enzyme activity was assayed with benzylamine as substrate by measuring either benzaldehyde production, using ^14C-labeled substrate, or by utilizing the production of hydrogen peroxide in a horseradish peroxidase (HRP) coupled reaction. Briefly, test compounds were dissolved in dimethyl sulfoxide (DMSO) to a concentration of 10 mM. Dose-response measurements were assayed by either creating 1:10 serial dilutions in DMSO to produce a 7 point curve or by making 1:3 serial dilutions in DMSO to produce 11 point curves. The top concentrations were adjusted depending on the potency of the compounds and subsequent dilution in reaction buffer yielded a final DMSO concentration ≤2%.
In a horseradish peroxidase (HRP) coupled reaction, hydrogen peroxide oxidation of 10-acetyl-3,7-dihydroxyphenoxazine produced resorufin, which is a highly fluorescent compound (Zhout and Panchuk-Voloshina. Analytical Biochemistry 253 (1997) 169-174; Amplex® Red Hydrogen Peroxide/peroxidase Assay kit, Invitrogen A22188). Enzyme and compounds in 50 mM sodium phosphate, pH 7.4 were set to pre-incubate in flat-bottomed microtiter plates for approximately 15 min before initiating the reaction by addition of a mixture of HRP, benzylamine and Amplex reagent. Benzylamine concentration was fixed at a concentration corresponding to the Michaelis constant, determined using standard procedures. Fluorescence intensity was then measured at several time points during 1-2 h, exciting at 544 nm and reading the emission at 590 nm. For the human SSAO assay final concentrations of the reagents in the assay wells were: SSAO enzyme 1 ug/mL, benzylamine 100 uM, Amplex reagent 20 uM, HRP 0.1 U/mL and varying concentrations of test compound. The inhibition was measured as % decrease of the signal compared to a control without inhibitor (only diluted DMSO). The background signal from a sample containing no SSAO enzyme was subtracted from all data points. Data was fitted to a four parameter logistic model and IC50 values were calculated using the GraphPad Prism 4 or XLfit 4 programs.
SSAO activity was assayed using 14C-labeled benzylamine and analysed by measuring radioactive benzaldehyde. In a white 96-well optiplate (Packard), 20 uL of diluted test compound was pre-incubated at RT with 20 uL SSAO enzyme for approximately 15 min with continuous agitation. All dilutions were made with PBS. The reaction was initiated by adding 20 uL of the benzylamine substrate solution containing [7-14C] Benzylamine hydrochloride (CFA589, GE Healthcare). The plate was incubated for 1 h as above after which the reaction was stopped by acidification (10 uL 1M aq HCl). Then 90 uL Micro Scint-E solution (Perkin-Elmer) was added to each well and the plate was continuously mixed for 15 min. Phase separation occurred instantly and activity was read in a Topcount scintillation counter (Perkin-Elmer). In the final reaction well, the human recombinant SSAO concentration was 10 ug/mL. In order to optimize sensitivity, the substrate concentration was decreased as compared to the HRP coupled assay in order to get a higher fraction of radioactive product. In the human SSAO assay, benzylamine concentration was 40 uM (0.2 uCi/mL). Data was analysed as above.

[2] = target: human ether a go-go related gene (hERG) K+ channel (Homo sapiens (Human), UniProt Q12809); assay: hERG assay, IonWorks patch clamp electrophysiology; type: cell-based; conditions: Chinese Hamster Lung cell line stably expressing hERG, max concentration 11 uM
Protocol: Compounds of the invention were tested for inhibition of the human ether a go-go related gene (hERG) K^+ channel using IonWorks patch clamp electrophysiology. 8 Point concentration-response curves were generated on two occasions using 3-fold serial dilutions from the maximum assay concentration (11 uM). Electrophysiological recordings were made from a Chinese Hamster Lung cell line stably expressing the full length hERG channel. Single cell ion currents were measured in the perforated patch clamp configuration (100 ug/mL amphoterocin) at RT using an IonWorks Quattro instrument. The internal solution contained 140 mM KCl, 1 mM MgCl2, 1 mM EGTA and 20 mM HEPES and was buffered to pH 7.3. The external solution contained 138 mM NaCl, 2.7 mM KCl, 0.9 mM CaCl2, 0.5 mM MgCl2, 8 mM Na2HPO4 and 1.5 mM KH2PO4, and was buffered to pH 7.3. Cells were clamped at a holding potential of […] for 30 s and then stepped to +40 mV for 1 s. This was followed by a hyperpolarising step of 1 s to […] to evoke the hERG tail current. This sequence was repeated 5 times at a frequency of 0.25 Hz. Currents were measured from the tail step at the 5th pulse, and referenced to the holding current. Compounds were incubated for 6-7 min prior to a second measurement of the hERG signal using an identical pulse train. A minimum of 17 cells were required for each pIC50 curve fit. […]

human SSAO, sequence (Q16853 29-763): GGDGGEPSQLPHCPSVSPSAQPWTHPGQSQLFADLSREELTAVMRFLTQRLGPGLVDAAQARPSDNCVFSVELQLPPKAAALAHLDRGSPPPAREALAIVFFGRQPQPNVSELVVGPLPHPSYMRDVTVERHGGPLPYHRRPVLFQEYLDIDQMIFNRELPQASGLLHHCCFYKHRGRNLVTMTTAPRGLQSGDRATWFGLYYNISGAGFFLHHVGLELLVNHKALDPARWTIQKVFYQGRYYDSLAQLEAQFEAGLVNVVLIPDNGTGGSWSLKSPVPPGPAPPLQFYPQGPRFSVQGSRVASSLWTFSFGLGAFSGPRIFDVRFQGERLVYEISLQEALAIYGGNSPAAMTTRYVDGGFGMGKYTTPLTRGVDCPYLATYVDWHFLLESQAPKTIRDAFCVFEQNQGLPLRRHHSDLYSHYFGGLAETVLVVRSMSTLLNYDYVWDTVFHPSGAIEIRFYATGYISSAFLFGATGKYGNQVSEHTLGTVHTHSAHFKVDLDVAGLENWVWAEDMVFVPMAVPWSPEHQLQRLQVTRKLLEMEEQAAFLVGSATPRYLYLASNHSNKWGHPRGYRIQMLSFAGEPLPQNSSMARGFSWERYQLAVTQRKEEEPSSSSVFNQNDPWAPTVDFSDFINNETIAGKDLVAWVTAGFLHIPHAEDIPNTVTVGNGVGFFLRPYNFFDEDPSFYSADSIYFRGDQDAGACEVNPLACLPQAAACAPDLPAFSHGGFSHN
human ether a go-go related gene (hERG) K+ channel, sequence (Q12809 whole entry): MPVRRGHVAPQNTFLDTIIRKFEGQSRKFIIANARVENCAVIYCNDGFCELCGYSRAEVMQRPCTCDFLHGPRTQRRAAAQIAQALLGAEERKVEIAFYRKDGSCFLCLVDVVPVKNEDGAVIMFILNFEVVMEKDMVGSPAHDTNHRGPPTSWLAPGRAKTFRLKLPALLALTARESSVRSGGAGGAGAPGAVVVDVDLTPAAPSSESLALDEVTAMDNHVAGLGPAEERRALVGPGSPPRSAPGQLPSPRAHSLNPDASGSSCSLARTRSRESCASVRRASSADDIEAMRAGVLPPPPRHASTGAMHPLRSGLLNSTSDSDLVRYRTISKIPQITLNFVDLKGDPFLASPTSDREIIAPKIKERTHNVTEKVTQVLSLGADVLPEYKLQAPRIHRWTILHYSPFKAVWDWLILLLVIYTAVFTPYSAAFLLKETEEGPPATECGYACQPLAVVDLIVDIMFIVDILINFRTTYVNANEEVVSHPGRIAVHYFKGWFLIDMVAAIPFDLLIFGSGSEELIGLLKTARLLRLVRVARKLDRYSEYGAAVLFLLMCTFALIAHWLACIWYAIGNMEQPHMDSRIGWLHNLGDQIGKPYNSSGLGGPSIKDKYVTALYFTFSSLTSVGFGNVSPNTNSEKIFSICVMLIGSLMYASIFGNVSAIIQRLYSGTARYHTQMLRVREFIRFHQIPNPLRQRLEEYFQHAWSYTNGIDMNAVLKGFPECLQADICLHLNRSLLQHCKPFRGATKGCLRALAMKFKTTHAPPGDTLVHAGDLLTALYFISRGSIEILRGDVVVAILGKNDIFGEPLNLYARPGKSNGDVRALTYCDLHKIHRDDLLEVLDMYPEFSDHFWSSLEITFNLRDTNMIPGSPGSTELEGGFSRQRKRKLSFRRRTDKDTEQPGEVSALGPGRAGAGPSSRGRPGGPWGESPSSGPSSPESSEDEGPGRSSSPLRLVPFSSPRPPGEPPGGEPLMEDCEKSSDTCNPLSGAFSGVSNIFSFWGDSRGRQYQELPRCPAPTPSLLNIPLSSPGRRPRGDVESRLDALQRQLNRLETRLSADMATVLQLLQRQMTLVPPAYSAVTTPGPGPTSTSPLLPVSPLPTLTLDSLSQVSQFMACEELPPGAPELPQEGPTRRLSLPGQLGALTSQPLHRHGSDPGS

SMILES	IC50 [1]	IC50 [2]
Fc1ccc(-n2c(-c3ccc4nc[nH]c4c3)nc3ccncc32)cc1 [Example 2, 5-[3-(4-Fluorophenyl)-3H-imidazo[4,5-c]pyridin-2-yl]-1H-1,3-benzodiazole]	200 to 500 nM	
O=c1cc(N2CCC(c3nc4ccncc4n3-c3ccc(Cl)cc3)CC2)nc[nH]1 [Example 6, 6-{4-[3-(4-Chlorophenyl)-3H-imidazo[4,5-c]pyridin-2-yl]piperidin-1-yl}-3,4-dihydropyrimidin-4-one]	200 to 500 nM	
Clc1ccc(-n2c(Cc3cccnc3)nc3ccncc32)cc1 [Example 7, 3-{[3-(4-Chlorophenyl)-3H-imidazo[4,5-c]pyridin-2-yl]methyl}pyridine; bis(formic acid)]	200 to 500 nM	
Clc1ccc(-n2c(CCCn3ccnc3)nc3ccncc32)cc1 [Example 8, 1-{3-[3-(4-chlorophenyl)-3H-imidazo[4,5-c]pyridin-2-yl]propyl}-1H-imidazole]	200 to 500 nM	
O=C(NCC1CCOCC1)c1nc2ccncc2n1-c1ccc(F)cc1 [Example 9, 3-(4-Fluorophenyl)-N-(oxan-4-ylmethyl)-3H-imidazo[4,5-c]pyridine-2-carboxamide]	200 to 500 nM	

Further lines, with some results ahead:

IC50 [1]	SMILES	IC50 [2]
50 to 200 nM	O=C1Cc2cc(-c3nc4ccncc4n3-c3ccc(F)cc3)ccc2N1 [Example 1, 5-[3-(4-Fluorophenyl)-3H-imidazo[4,5-c]pyridin-2-yl]-2,3-dihydro-1H-indol-2-one]	
< 50 nM	CC(C)(O)CNc1ncc(-c2nc3ccncc3n2-c2ccc(F)cc2)cn1 [Example 3, 1-({5-[3-(4-Fluorophenyl)-3H-imidazo[4,5-c]pyridin-2-yl]pyrimidin-2-yl}amino)-2-methylpropan-2-ol]	> 10000 nM
< 50 nM	Cc1ccc(-n2c(-c3cnc(NCC(C)(C)O)nc3)nc3ccncc32)cc1 [Example 4, 2-Methyl-1-({5-[3-(4-methylphenyl)-3H-imidazo[4,5-c]pyridin-2-yl]pyrimidin-2-yl}amino)propan-2-ol]	
< 50 nM	Clc1ccc(-n2c(C3CCN(c4ccncc4)CC3)nc3ccncc32)cc1 [Example 5, 4-{4-[3-(4-Chlorophenyl)-3H-imidazo[4,5-c]pyridin-2-yl]piperidin-1-yl}pyridine; bis(formic acid)]	10 to 1000 nM
